Results taken from patent publication US9856507B2, “Method for screening food ingredients and food compositions” (JAPANESE FOUNDATION FOR CANCER RESEARCH, priority 2013, dated 2018).

How the values were obtained:
liver cancer [1] = test: Liver cancer induction by oral deoxycholic acid in mice fed high-fat diets and given antibiotic cocktail; format: in vivo; settings: 40 μg/g body weight orally three times a week; HFD + antibiotic cocktail; n=3
Protocol: From the 13th week after the start of the raising, the antibiotic cocktail was administered to mice fed high-fat diets, which were then further raised. To these mice, 40 μg/g body weight of deoxycholic acid (DCA) or only a vehicle as a control was orally administered three times a week (FIG. 6A). […] The mice given deoxycholic acid developed a large number of liver tumors (indicated by Δ in the diagram), whereas cancer development was rarely seen in the control mouse group given only the vehicle. […] The cancer was rarely developed in the control mouse group given only the vehicle, and even if the cancer was developed, its tumor size was small. On the other hand, the deoxycholic acid administration group had multiple cancer (25 or more tumors per individual), and also, its size was large.

liver cancer [2] = test: Liver cancer development in DMBA-treated mice fed high-fat diets, antibiotic in drinking water; format: in vivo; settings: dissected at 30th week; antibiotic from 13 weeks old; compared with control
From the text: An acetone solution containing 0.5% of the carcinogenic substance DMBA (7,12-dimethylbenz[a]anthracene) was applied once to the backs of wild-type (C57BL/6) neonatal mice. The neonatal mice were raised together with their mother mouse by feeding with normal diets (ND) or high-fat diet (HFD) until 4 weeks old. The high-fat diets used were D12492 (Rodent Diet with 60% kcal % Fat; Research Diets, Inc., USA). The neonatal mice were weaned at 4 weeks old and subsequently raised with normal diets or high-fat diet. At 30 weeks old, their livers and lungs were excised, and the presence or absence of cancer development was analyzed. The average body weight of the mice at the time of dissection was 33 g for the mice fed normal diets and 51 g for the mice fed high-fat diets. The mice fed high-fat diets had approximately 1.5 times the body weights of the mice fed normal diets.
DMBA was applied to wild-type neonatal mice, followed by high-fat diet feeding. From 13 weeks old, an antibiotic cocktail (4Abx, antibiotic cocktail administration group) or vancomycin (VCM, vancomycin administration group) mixed with drinking water was administered to the mice. At the 30th week after the start of the raising, their livers were excised, and liver cancer development was analyzed. […]
The mice of each group were dissected at the 30th week, and liver cancer development was analyzed (FIGS. 4C and 4D).

intestinal bacteria = test: Level of gene encoding intestinal bacterial 16S rRNA after antibiotic administration; format: in vivo, mice; settings: 17 weeks after antibiotic administration, 30 weeks after birth; high-fat diet, drinking water
Protocol: DMBA was applied to wild-type neonatal mice, followed by high-fat diet feeding. From 13 weeks old, an antibiotic cocktail (4Abx, antibiotic cocktail administration group) or vancomycin (VCM, vancomycin administration group) mixed with drinking water was administered to the mice. At the 30th week after the start of the raising, their livers were excised, and liver cancer development was analyzed. On the other hand, the raising of a control group was continued in the same way as the aforementioned raising up to the 13th week. The antibiotic cocktail contained ampicillin (1 g/l), neomycin (1 g/l), metronidazole (1 g/l), and vancomycin (500 mg/l). Also, in the case of administering vancomycin alone, 500 mg/l was administered.

gut microbiota = test: Gut microbiota analysis by PCR of 16S rRNA gene from feces; format: in vivo, mice
Protocol: Next, alteration in gut microbiota caused by antibiotic administration conducted in Example 3 will be shown. In the experimental schedule shown in FIG. 4A, 3 groups were used: a group fed normal diets, a group fed high-fat diets, and a group fed high-fat diets and also given vancomycin. The gut microbiota was analyzed.
The gut microbiota was identified by PCR analysis (Non Patent Literatures 11 and 12). Specifically, DNA was extracted from the feces and purified. The gene encoding 16S rRNA in many types of bacteria was amplified by PCR using universal primers. The V1-V4 hypervariable regions were further amplified, followed by identification.

| tumor size (liver) (liver cancer [1]) | tumors per individual (liver) (liver cancer [1]) | SMILES | liver cancer development (tumor number and size) (liver cancer [2]) | amount of intestinal bacteria (level of gene encoding 16S rRNA) (intestinal bacteria) | Gram-negative microbiota, average (gut microbiota; HFD+VCM group, on average (FIG. 5)) [%] | cluster XI of the genus Clostridium (gut microbiota; high-fat diet plus vancomycin group, n=2) [%] |
| --- | --- | --- | --- | --- | --- | --- |
| large | ≥ 25 | C[C@H](CCC(=O)O)[C@H]1CC[C@H]2[C@@H]3CC[C@@H]4C[C@H](O)CC[C@]4(C)[C@H]3C[C@H](O)[C@]12C [deoxycholic acid] | – | – | – | – |
| – | – | CN[C@H](CC(C)C)C(=O)N[C@H]1C(=O)N[C@@H](CC(N)=O)C(=O)N[C@H]2C(=O)N[C@H]3C(=O)N[C@H](C(=O)N[C@H](C(=O)O)c4cc(O)cc(O)c4-c4cc3ccc4O)[C@H](O)c3ccc(c(Cl)c3)Oc3cc2cc(c3O[C@@H]2O[C@H](CO)[C@@H](O)[C@H](O)[C@H]2O[C@H]2C[C@](C)(N)[C@H](O)[C@H](C)O2)Oc2ccc(cc2Cl)[C@H]1O [vancomycin] | developed no liver cancer or developed liver cancer with a smaller tumor number and a smaller size as compared with the control | decreased into a very small level | 99 | 0 |
